This is an account of results in patent US20080085939A1, “Use Of Sphingolipids For Prevention And Treatment Of Atherosclerosis” (priority 2004, published 2008).

Common to all, as to format: cell-based
Series [1] has as its system NFAT-mediated signal transduction pathway in Jurkat cells (T-cells). The series is described as follows: PMA/ionomycin-induced stimulation of Jurkat cells, NFAT-luciferase reporter. To be noted: 10 μg/mL sphingolipid; Jurkat pNFAT-luc; PMA 50 ng/ml and ionomycin 1 μg/ml, 6 hours; FIG. 2. As for the experimental part: (§1) Jurkat cells (T-cells) stably transfected with pNFAT-luc (Clontech, BD Bioscience, Becton, Dickinson and Company, Franklin Lakes, N.J. USA) in which the hygromycin resistance gene was cloned were used. The cells produce the enzyme luciferase under control of the NFAT (nuclear Factor of Activated T cells) promoter. The NFAT-mediated pathways are stimulated in Jurkat cells by PMA and ionomycin. Cells were grown at 37° C. at 5% (v/v) CO2 and 100% relative humidity in medium consisting of RPMI 1640, 10 mM HEPES (N-[2-hydroxyethyl]piperazine-N′-[2-ethanesulfonic acid), 10% FCS, 2 mM L-Glutamine and 1 mM Sodium Pyruvate. The medium was changed every 3 days. Finally the cells were transferred to 96-wells plates.
A cell suspension of 5×10^5 cells/ml in medium without phenol red was transferred to 96 well microtiter plates (200 μL/well). In triplicate sphingolipids were added (1 or 10 μg/mL). After 30 min PMA (50 ng/ml) and ionomycin (1 μg/ml) was added and the cells were incubated during 6 hours. Then 60 μl cell suspension was mixed with 60 μl steady glo reagent (Promega). Luminescence was measured in a Wallac 1450 microbeta liquid scintillation counter.
(In general: Reporter assays use an easily measured gene product as a stand-in for the process of interest.)

Series [2] has as its system LPS-induced TNFα release by macrophage U937 cells. The series is described as follows: Effect of sphingolipids on LPS-induced TNFα release by macrophage U937 cells. To be noted: differentiated U937 cells; 1 μg/ml or 10 μg/ml sphingolipid for 30 min, then LPS 1 μg/ml for 4 hours; FIG. 1. The method, then:
Undifferentiated U937 cells were grown at 37° C. at 5% (v/v) CO2 and 100% relative humidity in medium consisting of RPMI 1640, and supplemented with 10% Fetal Calf Serum (FCS), 2 mM L-Glutamine, 50 μg/ml Gentamycin and 0.4% Fungizone. The cells were passaged every three days. Finally the cells were transferred to 96-wells microtiter plates. Differentiation was induced by addition of 10 ng/ml PMA (Phorbol 12-myristate 13-acetate). After 24 hours the medium was changed and refreshed every day and the differentiated macrophages were grown for another 3 days at 37° C. The above described differentiated U937 cells were treated for 30 min with 1 μg/ml or 10 μg/ml sphingolipid (1 mg/mL in ethanol). Then the cells were stimulated with LPS (1 μg/ml) for a period of 4 hours. The TNFα release was measured with the TNF-α cytoset™ from Biosource International, Camarillo, Calif., USA.

For series [3], the system named is Jurkat cells (T-cells). The series is described as follows: Cell proliferation/viability of Jurkat cells, Alamar Blue test. To be noted: exposure to sphingolipids. The method, then:
as §1
Because sphingolipids can be cytotoxic to cells, the viability of the cells after exposure to the sphingolipids was checked with the Alamar Blue™ (Biosource) test. Almar blue™ (20 μL) and sphingolipids were added simultaneously. The Fluorescence (excitation at 540 nm and emission at 570 nm) was measured in a Wallac 1420 Victor^2 multilabel counter (Perkin Elmer Wellesley, Mass., USA).
A general note: Resazurin is reduced to fluorescent resorufin, in cell work by metabolically active cells.

In the case of `CCCCCCCCCCCCCC[C@@H](O)[C@@H](O)[C@@H](N)CO` [phytosphingosine], the “PMA/ionomycin-induced activation of the NFAT-mediated signal transduction pathway (luciferase activity)” value (“PMA/ionomycin-induced activation” for short) in series [1] is recorded as “completely suppressed”. Also, the “release of TNFα by LPS-stimulated macrophages” value (shortened to “release of TNFα”) in series [2] is reported as “strongly reduced”. Besides, the “cell viability of Jurkat cells (Alamar Blue fluorescence)” value (“cell viability of Jurkat cells” for short) in series [3] is given as “No differences”.

As for `CCCCCCCCCCCCCCC[C@@H](O)[C@@H](N)CO` [sphinganine], in series [1], the “PMA/ionomycin-induced activation” value is given as “completely suppressed”. Besides, the “release of TNFα” value in series [2] is recorded as “strongly reduced”. For the same compound, the “cell viability of Jurkat cells” value in series [3] is given as “No differences”.

As to `CCCCCCCCCCCCC/C=C/[C@@H](O)[C@@H](N)CO` [sphingosine], in series [1], the “PMA/ionomycin-induced activation” value is “completely suppressed”. Also, in series [2], the “release of TNFα” value is listed as “strongly reduced”. The “cell viability of Jurkat cells” value in series [3] is reported as “No differences”.
